For assay [1], the system named is plasma cholesterol. The experiment in a line: Hypocholesterolemic activity, plasma cholesterol in mice fed test compound in diet. The class given is in vivo, OF1 strain mice. The conditions noted are these: for change in vivo at 180 mg/kg/day: Mus musculus, feed or water, 240 h, read-out: Plasma Cholesterol (% Control), 0.1% compound in food, 10 days, ca. 180 mg/kg daily, mouse; for plasma cholesterol values as compared to control: same experimental conditions, reference drugs; for decrease plasma cholesterol by: 0.1% in food. The method, then:
A. Hypocholesterolemic activity
Mouse fed a normal diet is a convenient model which was proposed by several authors (P. Olivier et al, Atherosclerosis 70, 107-114, 1988) ,for the screening for hypocholesterolemic drugs. OF1 strain mice (Iffa Credo) weighing between 25 and 35 g were divided into 5 groups of 5 animals each, four groups received the test compounds and the fifth group served as control. The test compounds were dissolved in diethyl ether. The ether solution was added to food to obtain a final concentration of 0.1%. compound in food. Ether was then evaporated at room temperature. The animals were fed for 10 days, the dally food intake corresponds to ca. 180 mg/kg. After an overnight fast, they were sacrificed by decapitation under ether anesthesia. Blood samples were collected using EDTA as anticoagulant.
Plasma cholesterol was measured by an enzymatic test (DIAMED, Morat, Switzerland). The mean values of each group receiving the test or reference compounds were expressed as percent of mean value of the contemporary control.

The subject of assay [2] is lipid peroxidation (rat liver homogenate). The experiment in a line: Antioxidant activity, inhibition of iron induced lipid peroxidation in liver homogenate. The class given is biochemical, Wistar rat. Particulars: FeSO4, 37° C., 2 h; <25 μM where IC50 was not determined. The protocol:
The liver of a Wistar rat anesthetized with ether was collected and homogenized in 4 volumes of phosphate buffer (+4° C., pH 7.4) by means of a Potter. After centrifugation at 2000 rpm for 10 min the supernatant obtained was kept at +4° C. Lipid peroxidation was carried out in presence of FeSOhd according to the method described by A. T. Quitaniha et at, Ann.
The mixture contained 1.7 ml phosphate buffer, 0.2 ml homogenate and 0.1 ml of a 2 mM FeSO4 solution. The test compounds were added in a volume of 61 μl of ethanol or DMSO. Oxydation was carried out at 37° C. for 2 h and was stopped by the addition of 20 μl of 2% ethanolic solution of BHT.

Counter-ions that a name gives are not always drawn. Where only a bound is given, the exact number is not on record here.

What is called IC50 is the point on the concentration scale where inhibition reaches its midpoint.

Take `CCOP(=O)(OCC)C(NC1COC(C)(C)OC1c1ccccc1)c1cc(C(C)(C)C)c(O)c(C(C)(C)C)c1` (stereo not drawn) [Compound 91]: the change in vivo at 180 mg/kg/day in assay [1] is -18%.
For `CCOC(=O)C(C)(C)Oc1ccc(Cl)cc1` [Clofibrate, reference compound], the “plasma cholesterol values as compared to control” value in assay [1] (mouse) was “+4%”.
For `CCCCOP(=O)(OCCCC)C(c1cc(C(C)(C)C)c(O)c(C(C)(C)C)c1)N(CCCc1ccccc1)C(C)=O` (stereo not drawn) [Compound 63], the change in vivo at 180 mg/kg/day in assay [1] was 4%. In assay [2], the IC50 is less than 25 µM.
Regarding `CCOP(=O)(OCC)C(NCCCc1ccccc1)c1cc(C(C)(C)C)c(O)c(C(C)(C)C)c1` (stereo not drawn) [Compound 26, Hydrochloride salt of diethyl α-(3,5-di-tert-butyl-4-hydroxyphenyl),N-(3-phenylpropyl)-animomethylphosphonate], the “Plasma Cholesterol (% Control)” value in assay [1] (0.1% compound in food, 10 days, ca. 180 mg/kg daily, mouse) is recorded as -11 % Control. Further, in assay [2], the IC50 was less than 25 µM.
As to `CCOP(=O)(OCC)C(NCCc1cccn1C)c1cc(C(C)(C)C)c(O)c(C(C)(C)C)c1` (stereo not drawn) [Compound 37], the change in vivo at 180 mg/kg/day in assay [1] is 12%. This molecule gave an IC50 in assay [2] of 4 µM.
On the same counts, the results for `CCCOP(=O)(OCCC)C(NCCCc1ccccc1)c1cc(C(C)(C)C)c(O)c(C(C)(C)C)c1` (stereo not drawn) [Compound 23] are -4% and less than 25 µM.
The corresponding values for `CCCCOP(=O)(OCCCC)C(NCCCc1ccccc1)c1cc(C(C)(C)C)c(O)c(C(C)(C)C)c1` (stereo not drawn) [Compound 25] are -4% and less than 25 µM.
As to `CCOP(=O)(OCC)C(NCCCc1ccccc1)c1ccc(OC)cc1` (stereo not drawn) [Compound 79], the change in vivo at 180 mg/kg/day in assay [1] worked out at 9%. The same molecule showed an IC50 in assay [2] greater than 25 µM.
As to `CCOP(=O)(OCC)C(NCc1cc(C(C)(C)C)c(O)c(C(C)(C)C)c1)c1cc(C(C)(C)C)c(O)c(C(C)(C)C)c1` (stereo not drawn) [Compound 40, Diethyl α-(3,5-di-tert-butyl-4-hydroxyphenyl)-N-(3,5-di-tert-butyl-4-hydroxybenzyl)-aminomethylphosphonate], the change in vivo at 180 mg/kg/day in assay [1] is -25%.
On to `CCOP(=O)(OCC)C(NCCc1ccccc1)c1cc(C(C)(C)C)c(O)c(C(C)(C)C)c1` (stereo not drawn) [Compound 13], for which the change in vivo at 180 mg/kg/day in assay [1] is -28%. Moreover, the IC50 in assay [2] worked out at 4.9 µM.
On to `CCOP(=O)(OCC)C(NCCc1ccccn1)c1cc(C(C)(C)C)c(O)c(C(C)(C)C)c1` (stereo not drawn) [Compound 43, Diethyl α-(3,5-di-tert-butyl-4-hydroxyphenyl)-N-[2-(2-pyridyl)-ethyl]aminomethyl-phosphonate], for which the change in vivo at 180 mg/kg/day in assay [1] is -35%. In addition, the “decrease plasma cholesterol by” value in assay [1] (mouse, 10 days) is on record as “more than 30%”. Further, the IC50 in assay [2] was less than 25 µM.
As for `CCOP(=O)(OCC)C(NC1CCN(Cc2ccccc2)CC1)c1cc(C(C)(C)C)c(O)c(C(C)(C)C)c1` (stereo not drawn) [Compound 36], the change in vivo at 180 mg/kg/day in assay [1] was -6%. For the same molecule, the IC50 in assay [2] was less than 25 µM.
On the same counts, the results for `CCOP(=O)(OCC)C(NCc1ccccc1)c1ccc(O)c(OC)c1` (stereo not drawn) [Compound 70] are -10% and greater than 25 µM.
Turning to `CCCCCc1ccc(NC(c2cc(C(C)(C)C)c(O)c(C(C)(C)C)c2)P(=O)(OCC)OCC)cc1` (stereo not drawn) [Compound 10], the change in vivo at 180 mg/kg/day in assay [1] turned out to be 11%. The same molecule yielded an IC50 in assay [2] of 2.9 µM.
The corresponding values for `CC(C)OP(=O)(OC(C)C)C(NCCCc1ccccc1)c1cc(C(C)(C)C)c(O)c(C(C)(C)C)c1` (stereo not drawn) [Compound 24] are -22% and less than 25 µM.
The corresponding values for `CCOP(=O)(OCC)C(NC(C)(C)C)c1cc(C(C)(C)C)c(O)c(C(C)(C)C)c1` (stereo not drawn) [Compound 1] are 8% and greater than 25 µM.
On to `CC(C)OP(=O)(OC(C)C)C(NCCc1ccc(Cl)cc1)c1cc(C(C)(C)C)c(O)c(C(C)(C)C)c1` (stereo not drawn) [Compound 19], for which, in assay [1], the change in vivo at 180 mg/kg/day was -33%. In addition, the “decrease plasma cholesterol by” value in assay [1] (mouse, 10 days) is on record as “more than 30%”. Further, in assay [2], the IC50 was found to be 3 µM.
As to `C=CCNC(c1cc(C(C)(C)C)c(O)c(C(C)(C)C)c1)P(=O)(OCC)OCC` (stereo not drawn) [Compound 84, Diethyl α-(3,5-di-tert-butyl-4-hydroxyphenyl)-N-allyl-aminomethylphosphonate], the change in vivo at 180 mg/kg/day in assay [1] was -19%.
Regarding `CCOP(=O)(OCC)C(Nc1ccc(OC)cc1)c1cc(C(C)(C)C)c(O)c(C(C)(C)C)c1` (stereo not drawn) [Compound 7, Diethyl α-(3,5-di-tert-butyl-4-hydroxyphenyl)-N-(4-methoxyphenyl)-aminomethylphosphonate], the change in vivo at 180 mg/kg/day in assay [1] was -47%. In addition, in assay [1] (mouse, 10 days), the “decrease plasma cholesterol by” value is on record as “more than 30%”. For the same molecule, in assay [2], the IC50 is less than 25 µM.
On to `CCOP(=O)(OCC)C(NC(=O)OCc1ccccc1)c1cc(C(C)(C)C)c(O)c(C(C)(C)C)c1` (stereo not drawn) [Compound 85, Diethyl α-(3,5-di-tert-butyl-4-hydroxyphenyl)-N-benzyloxycarbonyl-aminomethylphosphonate], for which the change in vivo at 180 mg/kg/day in assay [1] was 0%.
On to `CCOP(=O)(OCC)C(NC1CCc2ccccc21)c1cc(C(C)(C)C)c(O)c(C(C)(C)C)c1` (stereo not drawn) [Compound 46], for which, in assay [1], the change in vivo at 180 mg/kg/day is -8%. The molecule also gave an IC50 in assay [2] of 3.8 µM.
On the same counts, the results for `CCCOP(=O)(OCCC)C(NCCc1ccc(Cl)cc1)c1cc(C(C)(C)C)c(O)c(C(C)(C)C)c1` (stereo not drawn) [Compound 18] are -23% and 2.9 µM.
On to `COP(=O)(OC)C(NCCCc1ccccc1)c1cc(C(C)(C)C)c(O)c(C(C)(C)C)c1` (stereo not drawn) [Compound 21], for which the change in vivo at 180 mg/kg/day in assay [1] was -33%. The “decrease plasma cholesterol by” value in assay [1] (mouse, 10 days) is “more than 30%”. In assay [2], this molecule yielded an IC50 of less than 25 µM.
Regarding `CCOP(=O)(OCC)C(c1cc(C(C)(C)C)c(O)c(C(C)(C)C)c1)N(CCc1ccccc1)C(C)=O` (stereo not drawn) [Compound 53], in assay [2], the IC50 was less than 25 µM.
`CCOP(=O)(OCC)C(NCc1ccncc1)c1cc(C(C)(C)C)c(O)c(C(C)(C)C)c1` (stereo not drawn) [Compound 86]: in assay [1], the change in vivo at 180 mg/kg/day is -15%.
In assay [2], `CCOP(=O)(OCC)C(c1cc(C(C)(C)C)c(O)c(C(C)(C)C)c1)N(Cc1ccccc1)C(=O)C(F)(F)F` (stereo not drawn) [Compound 52] registered an IC50 of less than 25 µM.
On the same count and under the same terms, in the case of `CCCCCc1ccc(N(C(=O)C(F)(F)F)C(c2cc(C(C)(C)C)c(O)c(C(C)(C)C)c2)P(=O)(OCC)OCC)cc1` (stereo not drawn) [Compound 58] it was less than 25 µM; in that of `CCOP(=O)(OCC)C(c1cc(C(C)(C)C)c(O)c(C(C)(C)C)c1)N(CCc1ccccc1)C(=O)C(F)(F)F` (stereo not drawn) [Compound 54], less than 25 µM; in that of `CCOP(=O)(OCC)C(c1cc(C(C)(C)C)c(O)c(C(C)(C)C)c1)N(CCOc1ccccc1)C(=O)C(F)(F)F` (stereo not drawn) [Compound 57], less than 25 µM.
Turning to `CCOP(=O)(OCC)C(NCCN1CCCCC1)c1cc(C(C)(C)C)c(O)c(C(C)(C)C)c1` (stereo not drawn) [Compound 34], the change in vivo at 180 mg/kg/day in assay [1] is -5%.
With `CCOP(=O)(OCC)C(c1cc(C(C)(C)C)c(O)c(C(C)(C)C)c1)N(Cc1ccccc1)C(C)=O` (stereo not drawn) [Compound 51], the IC50 in assay [2] is less than 25 µM.
Still for that read-out and setting: in the case of `CCOP(=O)(OCC)C(c1cc(C(C)(C)C)c(O)c(C(C)(C)C)c1)N(CCCc1ccccc1)C(=O)C(F)(F)F` (stereo not drawn) [Compound 64, Diethyl α-(3,5-di-tert-butyl-4-hydroxyphenyl)-N-trifluoroacetyl-N-(3-phenylpropyl)-aminomethylphosphonate] it was less than 25 µM.
With `Cc1ccc(C)c(OCCCC(C)(C)C(=O)O)c1` [Gemfibrozil, reference compound], the “plasma cholesterol values as compared to control” value in assay [1] (mouse) was -7%.
With `CCOP(=O)(OCC)C(c1cc(C(C)(C)C)c(O)c(C(C)(C)C)c1)N(CCCCc1ccccc1)C(=O)C(F)(F)F` (stereo not drawn) [Compound 66], in assay [2], the IC50 is less than 25 µM.
In the case of `CC(C)OC(=O)C(C)(C)Oc1ccc(C(=O)c2ccc(Cl)cc2)cc1` [Fenofibrate, reference compound], the “plasma cholesterol values as compared to control” value in assay [1] (mouse) was -26%.
In the case of `CCOP(=O)(OCC)C(c1cc(C(C)(C)C)c(O)c(C(C)(C)C)c1)N(C(=O)C(F)(F)F)C(Cc1ccccc1)c1ccccc1` (stereo not drawn) [Compound 56], in assay [2], the IC50 is less than 25 µM.
Consider `CCCCOc1ccc(C(NCCc2ccccc2)P(=O)(OCC)OCC)cc1` (stereo not drawn) [Compound 69], for which the change in vivo at 180 mg/kg/day in assay [1] came out at 2%.
On the same count and under the same terms, the value for `CCOP(=O)(OCC)C(N)c1cc(C(C)(C)C)c(O)c(C(C)(C)C)c1` (stereo not drawn) [Compound 83, Diethyl α-(3,5-di-tert-butyl4-hydroxyphenyl)-aminomethyl-phosphonate] was 4%.
The molecule `CCOP(=O)(OCC)C(Nc1ccc(N2C(=O)c3ccc(Cl)cc3C2=O)c(C)c1)c1cc(C(C)(C)C)c(O)c(C(C)(C)C)c1` (stereo not drawn) [Compound 11] had an IC50 in assay [2] of 2.7 µM.
In the case of `CCOP(=O)(OCC)C(Nc1cccc(C)c1)c1cc(C(C)(C)C)c(O)c(C(C)(C)C)c1` (stereo not drawn) [Compound 8], the IC50 in assay [2] is less than 25 µM.
Consider `CCCCOP(=O)(OCCCC)C(c1cc(C(C)(C)C)c(O)c(C(C)(C)C)c1)N(CCc1ccc(Cl)cc1)C(=O)C(F)(F)F` (stereo not drawn) [Compound 55], for which the IC50 in assay [2] was greater than 25 µM.

Values taken from patent US5424303A, “Substituted aminophosphonate derivatives, process for their preparation and pharmaceutical compositions containing them” (Symphar SA, priority 1992, dated 1995).
